Data as given in US8895695B2, “Template-fixed beta-hairpin peptidomimetics with CXCR4 antagonizing activity” (priority 2003, dated 2014).
Bridge positions count the residues as written; N and C are the ends. Square brackets hold non-standard residues; d marks the D form. Peptide text beside a SMILES is read from it. 2Nal = N[C@@H](Cc1ccc2ccccc2c1)C(=O)O; Cit = NC(=O)NCCC[C@H](N)C(=O)O

How the values were obtained:
CXCR4 = CXCR4 (Homo sapiens, UniProt P61073); test: Ca2+-assay method 2 (Flexstation, SDF-1 induced calcium mobilization); format: cell-based; parameters: expressed in transfected cells; host or cells: mouse pre-B cell line 300-19; conditions: method 2 (Ex. 54-160), mouse pre-B cell line 300-19 with human CXCR4, 10 nM SDF-1; read-out: IC50 (nM) Ca^2+ assay
[1] = test system: human red blood cells (hRBC); test: Hemolysis; format: cell-based
Outline: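 Percent lysis taken as OD540 of peptide-treated sample over OD540 of the water/0.1% Triton X-100 full-lysis control, with PBS giving 0%. Peptides at 100 μM exposed to PBS-washed human RBCs (20% v/v) for 1 hour at 37° C. before centrifugation and 20-fold dilution of supernatant.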

in vitro = conditions: human
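Wherever GI50 is given: MTT reduction read as absorbance at 595 nm, blank-corrected and expressed as percent growth relative to the time-zero cell reading, triplicate wells per concentration.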

CXCR4, sequence (P61073 whole entry): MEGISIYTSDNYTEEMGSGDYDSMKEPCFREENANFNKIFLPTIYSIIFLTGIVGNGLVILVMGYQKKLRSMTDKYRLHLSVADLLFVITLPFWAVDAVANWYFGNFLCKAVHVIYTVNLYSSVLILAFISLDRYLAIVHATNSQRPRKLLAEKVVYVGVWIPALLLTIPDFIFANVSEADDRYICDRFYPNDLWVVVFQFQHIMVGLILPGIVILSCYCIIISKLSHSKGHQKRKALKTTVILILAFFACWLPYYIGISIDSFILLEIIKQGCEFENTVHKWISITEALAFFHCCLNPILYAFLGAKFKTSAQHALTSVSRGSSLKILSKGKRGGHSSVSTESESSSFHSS

Compound	IC50 (CXCR4)	Hemolysis at 100 μM [1]	GI50 at 48 h (in vitro)
N=C(N)NCCC[C@@H]1NC(=O)[C@@H]2CSSC[C@H](NC(=O)[C@H](Cc3ccc4ccccc4c3)NC(=O)[C@H](CCCNC(=N)N)NC(=O)[C@H](Cc3c[nH]c4ccccc34)NC(=O)[C@H]3CCCN3C(=O)CNC1=O)C(=O)N[C@@H](Cc1ccc(O)cc1)C(=O)N[C@@H](CCC(N)=O)C(=O)N[C@@H](CCCCN)C(=O)N1CCC[C@@H]1C(=O)N1CCC[C@H]1C(=O)N[C@@H](Cc1ccc(O)cc1)C(=O)N[C@@H](CCCNC(=N)N)C(=O)N[C@@H](CCCNC(N)=O)C(=O)N2 [Ex. 55] (cyclo(YR[Cit]CRG[dP]WR[2Nal]CYQK[dP]P); disulfide 4-11)	6.3 nM	0.1%	43000 nM
CSCC[C@@H]1NC(=O)[C@H](Cc2ccc(O)cc2)NC(=O)[C@@H]2CSSC[C@H](NC(=O)[C@H](CCCNC(N)=O)NC(=O)[C@H](CCCNC(=N)N)NC(=O)[C@H](Cc3ccc(O)cc3)NC(=O)[C@@H]3CCCN3C(=O)[C@H]3CCCN3C(=O)[C@H](CCCCN)NC1=O)C(=O)N[C@@H](CCCNC(=N)N)C(=O)NCC(=O)N1CCC[C@@H]1C(=O)N[C@@H](CCCNC(=N)N)C(=O)N[C@@H](CCCNC(=N)N)C(=O)N[C@@H](Cc1ccc3ccccc3c1)C(=O)N2 [Ex. 83] (cyclo(YR[Cit]CRG[dP]RR[2Nal]CYMK[dP]P); disulfide 4-11)	3.7 nM	0.1%	48000 nM
N=C(N)NCCC[C@@H]1NC(=O)[C@@H]2CSSC[C@H](NC(=O)[C@H](Cc3ccc4ccccc4c3)NC(=O)[C@H](CCCNC(=N)N)NC(=O)[C@H](CCCNC(=N)N)NC(=O)[C@H]3CCCN3C(=O)CNC1=O)C(=O)N[C@@H](Cc1ccc(O)cc1)C(=O)N[C@@H](CCC(N)=O)C(=O)N[C@@H](CCCCN)C(=O)N1CCC[C@@H]1C(=O)N1CCC[C@H]1C(=O)N[C@@H](Cc1ccc(O)cc1)C(=O)N[C@@H](CCCNC(=N)N)C(=O)N[C@@H](Cc1c[nH]c3ccccc13)C(=O)N2 [Ex. 73] (cyclo(YRWCRG[dP]RR[2Nal]CYQK[dP]P); disulfide 4-11)	8.8 nM	0.3%	20000 nM
N=C(N)NCCC[C@@H]1NC(=O)[C@@H]2CSSC[C@H](NC(=O)[C@H](Cc3ccc4ccccc4c3)NC(=O)[C@H](CCCNC(=N)N)NC(=O)[C@H](CCCNC(=N)N)NC(=O)[C@H]3CCCN3C(=O)CNC1=O)C(=O)N[C@@H](Cc1ccc(O)cc1)C(=O)N[C@@H](CCCNC(N)=O)C(=O)N[C@@H](CCCCN)C(=O)N1CCC[C@@H]1C(=O)N1CCC[C@H]1C(=O)N[C@@H](Cc1ccc(O)cc1)C(=O)N[C@@H](CCCNC(=N)N)C(=O)N[C@@H](CCC(N)=O)C(=O)N2 [Ex. 130] (cyclo(YRQCRG[dP]RR[2Nal]CY[Cit]K[dP]P); disulfide 4-11)	4.1 nM	0%	62000 nM
N=C(N)NCCC[C@@H]1NC(=O)[C@@H]2CSSC[C@H](NC(=O)[C@H](Cc3c[nH]c4ccccc34)NC(=O)[C@H](CCCNC(=N)N)NC(=O)[C@H](CCCNC(N)=O)NC(=O)[C@H]3CCCN3C(=O)CNC1=O)C(=O)N[C@@H](Cc1ccc(O)cc1)C(=O)N[C@@H](CCCNC(N)=O)C(=O)N[C@@H](CCCCN)C(=O)N1CCC[C@@H]1C(=O)N1CCC[C@H]1C(=O)N[C@@H](Cc1ccc(O)cc1)C(=O)N[C@@H](CCCNC(=N)N)C(=O)N[C@@H](CCCNC(N)=O)C(=O)N2 [Ex. 136] (cyclo(YR[Cit]CRG[dP][Cit]RWCY[Cit]K[dP]P); disulfide 4-11)	4.1 nM	0%	> 100000 nM
